Columns and labels:
[1] = system: Ba/F3 cell naive; experiment: Ba/F3 cell proliferation suppression, naive; format: cell-based; settings: Mus musculus, BaF3; 72 hours after treatment, CellTiter-Glo
Outline: (§1)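 Seed 3000–5000 cells/well; after 24 h add compound (12 conc., 0.3 nM–50 um final); incubate 72 h; add CellTiter-Glo, 10 min room temperature; read luminescence; GI50 from % growth vs control, triplicate.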

[2] = target: T1, Ba/F3 cell HER2 Exon20 ins YVMA (Homo sapiens, UniProt P04626, INS775YVMA); experiment: Ba/F3 cell proliferation suppression, HER2 Exon20 ins YVMA; format: cell-based; settings: 72 hours after treatment, CellTiter-Glo
T1 construct: expressed in transfected cells; host or cells: Ba/F3
Description: (§2) The following experiment was carried out to evaluate the suppression activity of the compounds according to the present invention against proliferation of Ba/F3 and lung cancer cells which express EGFR mutations.
(§3) Of the cancer cell lines expressing the EGFR gene, A549 was cultured after adding 10% FBS (HyClone) to DMEM (Invitrogen), and RPMI-1640 (Invitrogen) with 10% FBS was used for the other cancer cells. For the Ba/F3 cells, RPMI-1640 with 10% FBS and 5 ng/ml IL-3 (R&D Systems) was used. The transduced Ba/F3 cells were cultured by adding 1 ug/ml puromycin (Invitrogen) to the same medium.
(§4) 24 hours before treatment with the compounds, 3000 to 5000 cells were distributed into each well of a white clear bottom 96 well plate (Corning). The compounds were diluted in dimethylsulfoxide (dilution ratio 3:1; 12 concentrations total) and injected 0.5 ul each for a final concentration of 0.3 nM to 50 um. As for measurement of live cells, 72 hours after treatment with the compounds, a CellTiter-Glo luminescent cell-viability reagent (Promega) was used to store the cells at room temperature for 10 minutes, followed by measurement of luminescence using a reader (SynergyNeo, Biotek). Each test was repeated three times.
(§5) The result was calculated as a cell growth ratio (%) compared to a control. The program GraphPad Prism version 5.0 was used to draw the graphs and calculate the GI50 values.

[3] = target: T2, Ba/F3 cell EGFR Exon20 ins NPH (Homo sapiens, UniProt P00533, INS773NPH); experiment: Ba/F3 cell proliferation suppression, EGFR Exon20 ins NPH; format: cell-based; settings: for GI50: 72 hours after treatment, CellTiter-Glo; for Ba/F3 (NPH) Activity: GI50 class, Ba/F3 cell line with NPH inserted at Exon20 of EGFR, 72 hours
T2 construct: expressed in transfected cells; host or cells: Ba/F3
Outline: as §1

[4] = system: Ba/F3 cell EGFR Del19/T790M; experiment: Ba/F3 cell proliferation suppression, EGFR Del19/T790M; format: cell-based; settings: 72 hours after treatment, CellTiter-Glo
Description: as §2, §3, §4, §5

[5] = target: T3, Ba/F3 cell EGFR Exon20 ins FQEA (Homo sapiens, UniProt P00533, INS763FQEA); experiment: Ba/F3 cell proliferation suppression, EGFR Exon20 ins FQEA; format: cell-based; settings: 72 hours after treatment, CellTiter-Glo
T3 construct: expressed in transfected cells; host or cells: Ba/F3
Description: as §2, §3, §4, §5

[6] = system: Ba/F3 cell EGFR Exon20 ins H; experiment: Ba/F3 cell proliferation suppression, EGFR Exon20 ins H; format: cell-based; settings: 72 hours after treatment, CellTiter-Glo
Description: as §2, §3, §4, §5

[7] = target: T4, Ba/F3 cell EGFR Exon20 ins SVD (Homo sapiens, UniProt P00533, INS770SVD); experiment: Ba/F3 cell proliferation suppression, EGFR Exon20 ins SVD; format: cell-based; settings: 72 hours after treatment, CellTiter-Glo
T4 construct: expressed in transfected cells; host or cells: Ba/F3
Description: as §2, §3, §4, §5

[8] = target: T5, Ba/F3 cell EGFR Exon20 ins ASV (Homo sapiens, UniProt P00533, INS769ASV); experiment: Ba/F3 cell proliferation suppression, EGFR Exon20 ins ASV; format: cell-based; settings: 72 hours after treatment, CellTiter-Glo
T5 construct: expressed in transfected cells; host or cells: Ba/F3
Description: as §2, §3, §4, §5

[9] = target: T6, Ba/F3 cell EGFR L858R/T790M (Homo sapiens, UniProt P00533, L858R/T790M); experiment: Ba/F3 cell proliferation suppression, EGFR L858R/T790M; format: cell-based; settings: 72 hours after treatment, CellTiter-Glo
T6 construct: expressed in transfected cells; host or cells: Ba/F3
Outline: as §1

[10] = target: T7, Ba/F3 cell EGFR L858R (Homo sapiens, UniProt P00533, L858R); experiment: Ba/F3 cell proliferation suppression, EGFR L858R; format: cell-based; settings: 72 hours after treatment, CellTiter-Glo
T7 construct: expressed in transfected cells; host or cells: Ba/F3
Description: as §2, §3, §4, §5

[11] = Cancer cell proliferation suppression, A549; format: cell-based; settings: A459; 72 hours after treatment, CellTiter-Glo
Description: as §2, §3, §4, §5

[12] = system: PC9GR; experiment: Lung cancer cell proliferation suppression, PC9GR; format: cell-based; settings: 72 hours after treatment, CellTiter-Glo
Description: as §2, §3, §4, §5

[13] = system: H1975; experiment: Lung cancer cell proliferation suppression, H1975; format: cell-based; settings: Homo sapiens, NCI-H1975; 72 hours after treatment, CellTiter-Glo
Description: as §2, §3, §4, §5

[14] = system: PC9; experiment: Lung cancer cell proliferation suppression, PC9; format: cell-based; settings: Homo sapiens, PC-9; 72 hours after treatment, CellTiter-Glo
Description: as §2, §3, §4, §5

[15] = system: scanMAX kinase panel (EGFR mutant, ERBB2, ERBB4); experiment: DiscoverX (eurofin) KINOMEscan (scanMAX platform) kinase profiling; format: binding
Excerpt: It was confirmed that the above example compounds had high selectivity against EGFR series genes. Accordingly, these can be useful in the treating of cancers wherein this kinase is expressed. In particular, as they have substantially outstanding lung cancer cell line proliferation suppression, they can be useful in the treatment of lung cancer, breast cancer, and brain cancer.

T1 sequence (P04626 with tags, fused parts or gaps INS775YVMA): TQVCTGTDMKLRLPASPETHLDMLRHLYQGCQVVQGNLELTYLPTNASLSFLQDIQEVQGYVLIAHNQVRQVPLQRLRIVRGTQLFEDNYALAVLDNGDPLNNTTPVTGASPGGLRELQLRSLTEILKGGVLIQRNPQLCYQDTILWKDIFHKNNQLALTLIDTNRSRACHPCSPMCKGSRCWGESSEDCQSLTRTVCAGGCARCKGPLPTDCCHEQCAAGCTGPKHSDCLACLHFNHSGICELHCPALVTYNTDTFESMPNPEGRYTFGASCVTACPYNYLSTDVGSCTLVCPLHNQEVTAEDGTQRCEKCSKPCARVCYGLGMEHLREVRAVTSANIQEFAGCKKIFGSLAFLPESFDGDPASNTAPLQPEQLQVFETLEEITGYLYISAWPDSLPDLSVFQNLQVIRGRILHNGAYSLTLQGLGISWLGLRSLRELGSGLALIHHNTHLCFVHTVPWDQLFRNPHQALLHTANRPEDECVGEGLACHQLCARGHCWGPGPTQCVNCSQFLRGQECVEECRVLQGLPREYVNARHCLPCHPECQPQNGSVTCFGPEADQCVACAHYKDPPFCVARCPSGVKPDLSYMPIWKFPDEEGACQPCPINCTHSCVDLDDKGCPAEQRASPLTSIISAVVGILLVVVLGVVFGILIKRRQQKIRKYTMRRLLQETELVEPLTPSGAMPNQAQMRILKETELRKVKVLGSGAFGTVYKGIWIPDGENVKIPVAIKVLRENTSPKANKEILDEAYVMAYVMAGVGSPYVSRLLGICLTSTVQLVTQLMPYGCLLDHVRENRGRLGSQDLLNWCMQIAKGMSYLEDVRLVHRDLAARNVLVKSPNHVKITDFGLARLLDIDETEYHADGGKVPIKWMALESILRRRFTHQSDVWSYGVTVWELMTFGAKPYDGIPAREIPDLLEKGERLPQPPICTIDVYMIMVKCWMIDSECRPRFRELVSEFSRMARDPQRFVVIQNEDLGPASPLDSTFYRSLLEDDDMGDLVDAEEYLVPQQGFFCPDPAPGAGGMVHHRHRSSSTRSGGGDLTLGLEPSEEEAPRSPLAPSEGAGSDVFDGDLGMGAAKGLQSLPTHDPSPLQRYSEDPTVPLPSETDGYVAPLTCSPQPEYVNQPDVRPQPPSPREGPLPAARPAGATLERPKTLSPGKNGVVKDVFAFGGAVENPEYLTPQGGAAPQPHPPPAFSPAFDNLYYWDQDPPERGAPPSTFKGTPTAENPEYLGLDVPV

GI50 [1] [µM] | GI50 [2] [µM] | GI50 [3] [µM] | Ba/F3 (NPH) Activity [3] | GI50 [4] [µM] | GI50 [5] [µM] | GI50 [6] [µM] | GI50 [7] [µM] | GI50 [8] [µM] | GI50 [9] [µM] | GI50 [10] [µM] | GI50 [11] [nM] | GI50 [12] [nM] | GI50 [13] [nM] | GI50 [14] [nM] | Structure (SMILES) | also measured
0.5 to 5 | < 0.05 | < 0.05 | A (GI50 < 50 nM) | < 0.05 | < 0.05 | < 0.05 | < 0.05 | < 0.05 | < 0.05 | < 0.05 | – | – | – | – | C=CC(=O)Nc1cc(Nc2cc(N3OCC[C@@H]3c3ccccc3)ncn2)ccc1N(C)CCN(C)C [Example 28] | –
≥ 5 | < 0.05 | < 0.05 | A (GI50 < 50 nM) | < 0.05 | < 0.05 | < 0.05 | < 0.05 | < 0.05 | < 0.05 | < 0.05 | > 15000 | 10 | 13 | 14 | C=CC(=O)Nc1cc(Nc2cc(N3OCC[C@@H]3c3ccccc3)ncn2)c(OC)cc1N1CCN(C2CCN(C)CC2)CC1 [Example 10] | –
≥ 5 | 0.05 to 0.5 | 0.05 to 0.5 | B (50 nM ≤ GI50 < 500 nM) | 0.05 to 0.5 | < 0.05 | 0.5 to 5 | 0.05 to 0.5 | 0.05 to 0.5 | 0.5 to 5 | – | – | – | – | – | C=CC(=O)Nc1cc(Nc2cc(N3OCC[C@H]3c3ccccc3)ncn2)c(OC)cc1N1CCN(C)CC1 [Example 3, N-(4-methoxy-2-(4-methylpiperazine-1-yl)-5-((6((S)-3-phenylisoxazolidine-2-yl)pyrimidine-4-yl)amino)phenyl) acrylamide] | –
– | – | – | – | – | – | – | – | – | – | – | 4820 | 14 | 24 | 5 | O=C(Nc1cnn2ccc(N3CCC[C@@H]3c3cc(F)ccc3F)nc12)N1CC[C@H](O)C1 [Larotrectinib] | –
≥ 5 | < 0.05 | < 0.05 | A (GI50 < 50 nM) | < 0.05 | < 0.05 | < 0.05 | < 0.05 | < 0.05 | < 0.05 | < 0.05 | > 15000 | 5 | 8 | 12 | C=CC(=O)Nc1cc(Nc2cc(N3OCC[C@@H]3c3ccccc3)ncn2)c(OC)cc1N1CCC(N(C)C)CC1 [Example 12, N-(2-(4-(dimethylamino)piperidine-1-yl)-4-methoxy-5-((6-((R)-3-phenylisoxazolidine-2-yl)pyrimidine-4-yl)amino)phenyl) acrylamide] | –
≥ 5 | < 0.05 | < 0.05 | A (GI50 < 50 nM) | < 0.05 | < 0.05 | < 0.05 | < 0.05 | < 0.05 | < 0.05 | < 0.05 | > 15000 | 64 | 63 | 12 | C=CC(=O)Nc1cc(Nc2cc(N3OCC[C@@H]3c3ccccc3)ncn2)c(OC)cc1N1CC[C@@H](N(C)C)C1 [Example 13] | –
– | – | – | A (GI50 < 50 nM) | – | – | – | – | – | – | – | > 15000 | 7 | 9 | 2 | C=CC(=O)Nc1cc(Nc2cc(N3OCC[C@@H]3c3ccccc3)ncn2)c(OC)cc1N1CCC(N2CCOCC2)CC1 [Example 11, N-(4-methoxy-2-(4-morpholinopiperidine-1-yl)-5-((6-((R)-3-phenylisoxazolidine-2-yl)pyrimidine-4-yl)amino)phenyl) acrylamide] | –
≥ 5 | < 0.05 | < 0.05 | A (GI50 < 50 nM) | < 0.05 | < 0.05 | < 0.05 | < 0.05 | < 0.05 | < 0.05 | < 0.05 | > 15000 | 4 | 6 | 1 | C=CC(=O)Nc1cc(Nc2cc(N3OCC[C@@H]3c3ccccc3)ncn2)c(OC)cc1N1CCC(N2CCN(C)CC2)CC1 [Example 9] | % inhibition of scanMAX Kinase profiling ([15]; EGFR(E746-A750del)): 100%; % inhibition of scanMAX Kinase profiling ([15]; EGFR(G719C)): 100%; % inhibition of scanMAX Kinase profiling ([15]; EGFR(G719S)): 100%; % inhibition of scanMAX Kinase profiling ([15]; EGFR(L747-E749del, A750P)): 100%; % inhibition of scanMAX Kinase profiling ([15]; EGFR(L747-T751del.Sins)): 100%; % inhibition of scanMAX Kinase profiling ([15]; EGFR(L858R)): 100%; % inhibition of scanMAX Kinase profiling ([15]; EGFR(L858R.T790M)): 96%; % inhibition of scanMAX Kinase profiling ([15]; EGFR(L861q)): 100%; % inhibition of scanMAX Kinase profiling ([15]; EGFR(S752-I759del)): 100%; % inhibition of scanMAX Kinase profiling ([15]; EGFR(T790M)): 99%; % inhibition of scanMAX Kinase profiling ([15]; ERBB2): 100%; % inhibition of scanMAX Kinase profiling ([15]; ERBB4): 100%; suppression activity against the EGFR mutant and ERBB2 and ERBB4 ([15]; KINOMEscan scanMAX kinase profiling): high suppression activity
– | – | – | – | – | – | – | – | – | – | – | > 15000 | 20 | 34 | 1 | C=CC(=O)N1CCC(Oc2cc3c(Nc4ccc(Cl)c(Cl)c4F)ncnc3cc2OC)CC1 [Poziotinib] | –
≥ 5 | < 0.05 | < 0.05 | A (GI50 < 50 nM) | < 0.05 | < 0.05 | < 0.05 | < 0.05 | < 0.05 | < 0.05 | < 0.05 | > 15000 | 6 | 13 | 7 | C=CC(=O)Nc1cc(Nc2cc(N3OCC[C@@H]3c3ccccc3)ncn2)c(OC)cc1N1CCN(CC)CC1 [Example 15, N-(2-(4-ethylpiperazine-1-yl)-4-methoxy-5-((6-((R)-phenylisoxazolidine-2-yl)pyrimidine-4-yl)amino)phenyl) acrylamide] | –
≥ 5 | < 0.05 | < 0.05 | A (GI50 < 50 nM) | < 0.05 | < 0.05 | < 0.05 | < 0.05 | < 0.05 | < 0.05 | < 0.05 | – | – | – | – | C=CC(=O)Nc1cc(Nc2cc(N3OCC[C@@H]3c3ccccc3)ncn2)ccc1N1CCN(C)CC1 [Example 29, N-(2-(4-methylpiperazine-1-yl)-5-((6-((R)-3-phenylisoxazolidine-2-yl)pyrimidine-4-yl)amino)phenyl) acrylamide] | –
– | – | – | – | – | – | – | – | – | – | – | 2410 | 16 | 36 | 7 | C=CC(=O)Nc1cc(Nc2nccc(-c3cn(C)c4ccccc34)n2)c(OC)cc1N(C)CCN(C)C [Osimertinib] | –
